Consider 17 compounds from patent publication US8367843B2, “Phenol derivative” (Fuji Yakuhin Co., Ltd., priority 2009, dated 2013).

What all share (assay type): in vivo
A short description of data set [1]: Concentration of unchanged compound in urine in rat. Particulars: 3 mg/kg oral, fasted male Wistar/ST rats, urine collected for 4 hours after administration, HPLC. As for the experimental part: Concentration of Unchanged Compound in Urine in Rat
A test substance suspended in 0.5% MC was orally administered to two male Wistar/ST rats fasted for about 16 hours in a dose of 3 mg/kg. Immediately after administration, urine was collected for 4 hours. After completion of collection of urine, urine remaining in the bladder was completely excreted by pressing the abdomen of the rat. The concentration of an unchanged compound in urine was measured by HPLC and expressed by a molar concentration (μM).

The test system of data set [2] is male Wistar/ST rats (pyrazinamide model). The data set can be described thus: Uricosuric action in rat pyrazinamide model. The following applies: urinary uric acid/creatinine ratio as percentage to control, test substance 30 mg/kg oral, 30 min after pyrazinamide 400 mg/kg, urine collected 2 to 3 hours after administration, read-out: Uricosuric action (control = 100). How it is done: Uricosuric Action in Rat Pyrazinamide Model
Pyrazinamide suspended in a 0.5% methyl cellulose solution (0.5% MC) was orally administered to 7- and 8-week-old male Wistar/ST rats (4 rats per group) fasted for about 16 hours in a dose of 400 mg/kg. After 30 minutes, a test substance suspended in 0.5% MC was orally administered in a dose of 30 mg/kg, and urine was collected for 1 hour in a range from 2 to 3 hours after administration. At the beginning of collection of urine and after completion of collection of urine, rats were forced to urinate by pressing the abdomen of the rat. The concentration of uric acid and that of creatinine in urine were measured by a kit, and a ratio of the concentration of uric acid to that of creatinine was used as an indicator of a uricosuric action. The action of each test substance was expressed by percentage to control.

The test system is the same in data set [3]. Put plainly: Uricosuric action in rat pyrazinamide model. The following applies: po, as above, but test substance 100 mg/kg.

With `CCc1oc2ccccc2c1C(=O)c1cc(Br)c(O)c(Br)c1` [Benzbromarone, reference compound], the “Concentration of unchanged compound in urine” value in data set [1] is 0 µM. Moreover, in data set [2], the response vs control in vivo at 30 mg/kg was determined as 114%.

Take `O=C(c1cc(Cl)c(O)c(Cl)c1)N1CS(=O)(=O)c2ccccc21` [Example 1, 3-(3,5-dichloro-4-hydroxybenzoyl)-1,1-dioxo-2,3-dihydro-1,3-benzothiazole]: the “Concentration of unchanged compound in urine” value in data set [1] stood at 9.8 µM. In data set [2], the response vs control in vivo at 30 mg/kg came out at 169%.

As to `N#Cc1cc(C(=O)N2CS(=O)(=O)c3ccccc32)cc(C(F)(F)F)c1O` [Example 4, 3-(3-cyano-4-hydroxy-5-trifluoromethylbenzoyl)-1,1-dioxo-2,3-dihydro-1,3-benzothiazole], the “Concentration of unchanged compound in urine” value in data set [1] was found to be 51.8 µM. Besides, the response vs control in vivo at 30 mg/kg in data set [2] worked out at 201%.

Take `N#Cc1cc(C(=O)N2CSc3ccccc32)cc(C(F)(F)F)c1O` [Example 5, 3-(3-cyano-4-hydroxy-5-trifluoromethylbenzoyl)-2,3-dihydro-1,3-benzothiazole]: the “Concentration of unchanged compound in urine” value in data set [1] worked out at 1.1 µM. Further, the response vs control in vivo at 30 mg/kg in data set [2] amounted to 136%.

On to `N#Cc1cc(C(=O)N2CS(=O)(=O)c3ccccc32)cc(Cl)c1O` [Example 7, 3-(3-chloro-5-cyano-4-hydroxybenzoyl)-1,1-dioxo-2,3-dihydro-1,3-benzothiazole], for which the “Concentration of unchanged compound in urine” value in data set [1] came out at 125 µM. Further, the response vs control in vivo at 30 mg/kg in data set [2] was determined as 178%.

With `CCc1cc(C(=O)N2CS(=O)(=O)c3ccccc32)cc(C#N)c1O` [Example 12, 3-(3-cyano-5-ethyl-4-hydroxybenzoyl)-1,1-dioxo-2,3-dihydro-1,3-benzothiazole], the “Concentration of unchanged compound in urine” value in data set [1] was 15.8 µM. Further, in data set [2], the response vs control in vivo at 30 mg/kg was found to be 187%.

For `N#Cc1cc(C(=O)N2CS(=O)(=O)c3ccccc32)cc(C2CC2)c1O` [Example 13, 3-(3-cyano-5-cyclopropyl-4-hydroxybenzoyl)-1,1-dioxo-2,3-dihydro-1,3-benzothiazole], in data set [1], the “Concentration of unchanged compound in urine” value stood at 3.9 µM. The response vs control in vivo at 30 mg/kg in data set [2] was determined as 172%.

Consider `C#Cc1cc(C(=O)N2CS(=O)(=O)c3ccccc32)cc(C#N)c1O` [Example 14, 3-(3-cyano-5-ethynyl-4-hydroxybenzoyl)-1,1-dioxo-2,3-dihydro-1,3-benzothiazole], for which the “Concentration of unchanged compound in urine” value in data set [1] came to 119 µM. In addition, the response vs control in vivo at 30 mg/kg in data set [2] turned out to be 164%.

For `CSc1cc(C(=O)N2CS(=O)(=O)c3ccccc32)cc(C#N)c1O` [Example 15, 3-(3-cyano-4-hydroxy-5-methylsulfanylbenzoyl)-1,1-dioxo-2,3-dihydro-1,3-benzothiazole], in data set [1], the “Concentration of unchanged compound in urine” value came out at 68.6 µM. Also, in data set [2], the response vs control in vivo at 30 mg/kg was 204%.

Turning to `O=C(c1cc(Cl)c(O)c(C(F)(F)F)c1)N1CS(=O)(=O)c2ccccc21` [Example 18, 3-(3-chloro-4-hydroxy-5-trifluoromethylbenzoyl)-1,1-dioxo-2,3-dihydro-1,3-benzothiazole], the “Concentration of unchanged compound in urine” value in data set [1] was determined as 1 µM. The response vs control in vivo at 30 mg/kg in data set [2] came out at 202%.

Consider `O=C(c1cc(F)c(O)c(Cl)c1)N1CS(=O)(=O)c2ccccc21` [Example 19, 3-(3-chloro-5-fluoro-4-hydroxybenzoyl)-1,1-dioxo-2,3-dihydro-1,3-benzothiazole], for which the “Concentration of unchanged compound in urine” value in data set [1] is 55.2 µM. The response vs control in vivo at 30 mg/kg in data set [2] is 129%.

As to `CSc1cc(C(=O)N2CS(=O)(=O)c3ccccc32)cc(Cl)c1O` [Example 21, 3-(3-chloro-4-hydroxy-5-methylsulfanylbenzoyl)-1,1-dioxo-2,3-dihydro-1,3-benzothiazole], the “Concentration of unchanged compound in urine” value in data set [1] is 1.9 µM. In addition, the response vs control in vivo at 30 mg/kg in data set [2] stood at 120%.

As for `CN(C)C(=O)c1cc(C(=O)N2CS(=O)(=O)c3ccccc32)cc(C(F)(F)F)c1O` [Example 27, 3-(3-dimethylcarbamoyl-4-hydroxy-5-trifluoromethylbenzoyl)-1,1-dioxo-2,3-dihydro-1,3-benzothiazole], the “Concentration of unchanged compound in urine” value in data set [1] is 30.6 µM. The response vs control in vivo at 30 mg/kg in data set [2] worked out at 146%.

As to `CCSc1cc(C(=O)N2CS(=O)(=O)c3ccccc32)cc(C#N)c1O` [Example 34, 3-(3-cyano-5-ethylsulfanyl-4-hydroxybenzoyl)-1,1-dioxo-2,3-dihydro-1,3-benzothiazole], the “Concentration of unchanged compound in urine” value in data set [1] amounted to 23.5 µM. Also, the response vs control in vivo at 30 mg/kg in data set [2] stood at 208%.

Turning to `CC(C)Sc1cc(C(=O)N2CS(=O)(=O)c3ccccc32)cc(C#N)c1O` [Example 35, 3-(3-cyano-4-hydroxy-5-isopropylsulfanylbenzoyl)-1,1-dioxo-2,3-dihydro-1,3-benzothiazole], the “Concentration of unchanged compound in urine” value in data set [1] was found to be 1.5 µM. In addition, in data set [2], the response vs control in vivo at 30 mg/kg turned out to be 140%.

In the case of `N#Cc1cc(C(=O)N2CS(=O)(=O)c3ccc(C(F)(F)F)cc32)cc(C(F)(F)F)c1O` [Example 38, 3-(3-cyano-4-hydroxy-5-trifluoromethylbenzoyl)-1,1-dioxo-5-trifluoromethyl-2,3-dihydro-1,3-benzothiazole], the “Concentration of unchanged compound in urine” value in data set [1] was 16.4 µM. Further, the response vs control in vivo at 30 mg/kg in data set [2] came to 180%.

Turning to `CCCN(CCC)S(=O)(=O)c1ccc(C(=O)O)cc1` [Probenecid, reference compound], in data set [1], the “Concentration of unchanged compound in urine” value was 0 µM. Moreover, the response vs control in vivo at 30 mg/kg in data set [2] was found to be 111%. In data set [3], the response vs control in vivo at 100 mg/kg was found to be 171%.
